Read-outs that look alike come from different tables or passages of the source.
Assays:
HL60 = assay: cells; details: Homo sapiens, HL-60, read-out: CYTOTOXIC ACTIVITY (M) HL60, leukemias & lymphomas, ALL Promyelocytic leukemia, line HL60
K562 = assay: cells; details: Homo sapiens, K562, read-out: CYTOTOXIC ACTIVITY (M) K562
H9 = assay: cells; details: Homo sapiens, H9, read-out: CYTOTOXIC ACTIVITY (M) H9, leukemias & lymphomas, Lymphoma T-cell, line H9
RAMOS [1] = assay: cells; details: Homo sapiens, read-out: CYTOTOXIC ACTIVITY (M) RAMOS, leukemias & lymphomas, Lymphoma Burkitts B celll, line RAMOS
Molt 3 [2] = assay: Cytotoxic activity (M) panel, Acute lymphoblastic Molt 3; details: Homo sapiens, MOLT-3, read-out: CYTOTOXIC ACTIVITY (M) Molt 3, leukemias & lymphomas, ALL Acute lymphoblastic, line Molt 3
Hut 78 = assay: Cytotoxic activity (M) panel, Lymphoma Cutaneus T cell Hut 78; details: Homo sapiens, HuT78, read-out: CYTOTOXIC ACTIVITY (M) Hut 78, leukemias & lymphomas, Lymphoma Cutaneus T cell, line Hut 78
MC116 = assay: Cytotoxic activity (M) panel, Lymphoma undifferentiated MC116; details: Homo sapiens, MC116, read-out: CYTOTOXIC ACTIVITY (M) MC116, leukemias & lymphomas, Lymphoma undifferentiated, line MC116
U-937 = assay: Cytotoxic activity (M) panel, Lymphoma Histiocytic U-937; details: Homo sapiens, U-937, read-out: CYTOTOXIC ACTIVITY (M) U-937
A549 = assay: Cytotoxic activity (M) panel, NSCL A549; details: Homo sapiens, A549, read-out: CYTOTOXIC ACTIVITY (M) A549
HT-29 = assay: Cytotoxic activity (M) panel, Colon HT-29; details: Homo sapiens, HT-29, read-out: CYTOTOXIC ACTIVITY (M) HT-29
786-O = assay: Cytotoxic activity (M) panel, Renal 786-O; details: Homo sapiens, 786-0, read-out: CYTOTOXIC ACTIVITY (M) 786-O
5637 = assay: Cytotoxic activity (M) panel, Bladder 5637; details: read-out: CYTOTOXIC ACTIVITY (M) 5637
PC3 = assay: Cytotoxic activity (M) panel, Prostate PC3; details: Homo sapiens, PC-3, read-out: CYTOTOXIC ACTIVITY (M) PC3
NCI-H187 = assay: Cytotoxic activity (M) panel, SCL NCI-H187; details: Homo sapiens, NCI-H187, read-out: CYTOTOXIC ACTIVITY (M) NCI-H187
SK-OV-3 = assay: Cytotoxic activity (M) panel, Ovary SK-OV-3; details: Homo sapiens, SK-OV-3, read-out: CYTOTOXIC ACTIVITY (M) SK-OV-3
FADU = assay: Cytotoxic activity (M) panel, Pharnynx FADU; details: Homo sapiens, read-out: CYTOTOXIC ACTIVITY (M) FADU
Hs746t = assay: Cytotoxic activity (M) panel, Gastric Hs746t; details: Homo sapiens, read-out: CYTOTOXIC ACTIVITY (M) Hs746t
SK-HEP-1 = assay: Cytotoxic activity (M) panel, Liver SK-HEP-1; details: Homo sapiens, SK-HEP1, read-out: CYTOTOXIC ACTIVITY (M) SK-HEP-1
LNCAP = assay: Cytotoxic activity (M) panel, Prostate LNCAP; details: Homo sapiens, read-out: CYTOTOXIC ACTIVITY (M) LNCAP
PANC-1 = assay: Cytotoxic activity (M) panel, Pancreas PANC-1; details: Homo sapiens, PANC-1, read-out: CYTOTOXIC ACTIVITY (M) PANC-1
DU-145 = assay: Cytotoxic activity (M) panel, Prostate DU-145; details: Homo sapiens, DU-145, read-out: CYTOTOXIC ACTIVITY (M) DU-145
MEL-28 = assay: Cytotoxic activity (M) panel, Melanoma Mel-28; details: Homo sapiens, SK-MEL-28, read-out: CYTOTOXIC ACTIVITY (M) Mel-28
Y-79 = assay: Cytotoxic activity (M) panel, Retinoblastoma Y-79; details: Homo sapiens, Y79, read-out: CYTOTOXIC ACTIVITY (M) Y-79
CHSA = assay: Cytotoxic activity (M) panel, Chondrosarcoma CHSA; details: read-out: CYTOTOXIC ACTIVITY (M) CHSA
OSA-FH = assay: Cytotoxic activity (M) panel, Osteosarcoma OSA-FH; details: read-out: CYTOTOXIC ACTIVITY (M) OSA-FH
SW-694 = assay: Cytotoxic activity (M) panel, Fibrosarcoma SW-694; details: read-out: CYTOTOXIC ACTIVITY (M) SW-694
Molt 3 [3] = system: Molt 3
RAMOS [4] = system: RAMOS
MX-1 = assay: Cytotoxic activity (M) panel, Breast MX-1; details: Homo sapiens, MX1, read-out: CYTOTOXIC ACTIVITY (M) MX-1

Row | SMILES | IC50 (HL60) | IC50 (K562) | IC50 (H9) | IC50 (RAMOS [1]) | IC50 (Molt 3 [2]) | IC50 (Hut 78) | IC50 (MC116) | IC50 (U-937) | IC50 (A549) | IC50 (HT-29) | IC50 (786-O) | IC50 5637 | IC50 (PC3) | IC50 (FADU) | IC50 (Hs746t) | IC50 (SK-HEP-1) | IC50 (PANC-1) | IC50 (MEL-28) | IC50 (CHSA) | IC50 (OSA-FH) | further results
1 | COc1c(C)cc2c(c1O)[C@@H]1C3Cc4c(OC(C)=O)c(C)c5c(c4[C@H](CNC(=O)[C@H](C)NC(=O)Cc4ccccc4)N3[C@@H](O)[C@H](C2)N1C)OCO5 (stereo partly shown) [drawing 223] | 1.23e-10 M | 4.45e-08 M | 1.14e-08 M | 8.85e-10 M | 8.85e-10 M | 1.06e-08 M | 1.41e-09 M |  |  |  |  |  |  |  |  |  |  |  |  |  | 
2 | COc1c(C)cc2c(c1O)[C@@H]1C3Cc4c(OC(C)=O)c(C)c5c(c4[C@H](CNC(=O)Cc4ccccc4)N3[C@@H](O)[C@H](C2)N1C)OCO5 (stereo partly shown) [drawing 224] | 3.97e-10 M |  |  | 7.15e-09 M | 2.54e-09 M | 7.46e-09 M | 1.13e-08 M |  |  |  |  |  |  |  |  |  |  |  |  |  | 
3 | COc1c(C)cc2c(c1O)[C@@H]1C3Cc4c(OC(C)=O)c(C)c5c(c4[C@H](CNC(=O)[C@H](C)NC(=O)CCc4ccccc4)N3[C@@H](O)[C@H](C2)N1C)OCO5 (stereo partly shown) [drawing 222] | 5.92e-09 M | 1.09e-08 M | 4.48e-09 M | 5.26e-11 to 1.1e-10 M | 7.53e-12 M | 9.9e-10 M |  | 5.15e-10 M |  |  |  |  |  |  |  |  |  |  |  |  | 
4 | COc1c(C)cc2c(c1O)[C@@H]1C3Cc4c(OC(C)=O)c(C)c5c(c4[C@H](CNC(=O)[C@H](C)NC(=O)C(F)(F)F)N3[C@@H](O)[C@H](C2)N1C)OCO5 (stereo partly shown) [drawing 212] |  |  |  |  |  |  |  |  | 7.68e-06 M | 1.97e-08 M | 1.59e-09 M | 3.42e-10 M | 2.15e-09 M | 1.58e-09 M | 2.18e-09 M | 6.01e-11 M | 4.17e-09 M | 3.17e-09 M | 6.77e-09 M | 1.39e-09 M | IC50 (NCI-H187): 9.57e-10 M; IC50 (SK-OV-3): 1.02e-07 M; IC50 (LNCAP): 2.17e-10 M; IC50 (DU-145): 1.83e-07 M; IC50 (Y-79): 7.36e-10 M
5 | COc1c(C)cc2c(c1O)[C@@H]1C3Cc4c(OC(C)=O)c(C)c5c(c4[C@H](COC(=O)/C=C/c4cccc(C(F)(F)F)c4)N3[C@@H](O)[C@H](C2)N1C)OCO5 (stereo partly shown) [drawing 237] |  | 1.56e-07 M | 1.56e-07 M | 8.86e-09 M | 1.44e-08 M | 6.47e-08 M | 1.69e-08 M | 7.6e-08 M |  |  |  |  |  |  |  |  |  |  |  |  | 
6 | COc1c(C)cc2c(c1O)[C@@H]1C3Cc4c(OC(C)=O)c(C)c5c(c4[C@H](COC(=O)CCc4ccccc4)N3[C@@H](O)[C@H](C2)N1C)OCO5 (stereo partly shown) [drawing 235] |  |  |  |  |  |  |  |  | 8.22e-06 M | 8.99e-09 M | 9.23e-10 M | 7.88e-10 M | 7.71e-10 M | 5.4e-11 M | 2.95e-08 M | 1.29e-09 M | 5.68e-10 M | 2.23e-08 M | 1.55e-05 M | 1.29e-09 M | IC50 (Y-79): 1.03e-08 M; IC50 (SW-694): 8.53e-06 M
7 | COc1c(C)cc2c(c1O)[C@@H]1C3Cc4c(OC(C)=O)c(C)c5c(c4[C@H](CNC(=O)CCc4ccccc4)N3[C@@H](O)[C@H](C2)N1C)OCO5 (stereo partly shown) [drawing 221] | 9.38e-09 M | 2.33e-07 M | 1.99e-11 M |  |  | 6.21e-11 M |  | 3.06e-11 M |  |  |  |  |  |  |  |  |  |  |  |  | IC50 (Molt 3 [3]): 0.0155 pM; IC50 (RAMOS [4]): 0.000777 nM
8 | CCCC(=O)OC[C@H]1c2c(c(OC(C)=O)c(C)c3c2OCO3)CC2[C@H]3c4c(cc(C)c(OC)c4O)C[C@@H]([C@H](O)N21)N3C (stereo partly shown) [drawing 240] |  | 2.11e-08 M | 6.76e-08 M | 9.09e-09 M | 4.63e-08 M | 2.06e-08 M | 1.51e-08 M | 1.03e-08 M |  |  |  |  |  |  |  |  |  |  |  |  | 
9 | COc1c(C)cc2c(c1O)[C@@H]1C3Cc4c(OC(C)=O)c(C)c5c(c4[C@H](CNC(=O)/C=C/c4cccc(C(F)(F)F)c4)N3[C@@H](O)[C@H](C2)N1C)OCO5 (stereo partly shown) [drawing 211] |  |  |  |  |  |  |  |  | 3.25e-09 M | 7.84e-10 M | 6.58e-12 M | 6.02e-10 M | 6.65e-09 M | 5.41e-11 M | 7.9e-12 M | 1.79e-12 M | 7.22e-11 M | 2.6e-10 M | 3.24e-10 M |  | IC50 (MX-1): 1.65e-06 M; IC50 (SK-OV-3): 4.39e-11 M; IC50 (LNCAP): 5.45e-10 M; IC50 (DU-145): 5.73e-10 M; IC50 (SW-694): 9.91e-10 M
10 | CCCC(=O)OC[C@H]1c2c(c(OC(C)=O)c(C)c3c2OCO3)CC2[C@H]3c4c(cc(C)c(OC)c4O)C[C@@H]([C@H](O)N21)N3C (stereo partly shown) [drawing 236] |  |  |  |  |  |  |  |  | 8.49e-09 M | 1.34e-08 M | 1.13e-08 M | 3.02e-08 M | 6.18e-10 M | 2.47e-08 M | 7.05e-07 M | 6.12e-08 M | 1.28e-08 M | 1.25e-08 M | 2.95e-08 M | 5.01e-08 M | IC50 (MX-1): 4.75e-08 M; IC50 (NCI-H187): 2.33e-10 M; IC50 (SK-OV-3): 3.55e-08 M; IC50 (LNCAP): 3.29e-07 M; IC50 (DU-145): 1.17e-08 M; IC50 (Y-79): 2.64e-09 M
11 | CCCCCC(=O)NC[C@H]1c2c(c(OC(C)=O)c(C)c3c2OCO3)CC2[C@H]3c4c(cc(C)c(OC)c4O)C[C@@H]([C@H](O)N21)N3C (stereo partly shown) [drawing 226] |  |  |  |  |  |  |  |  | 9.41e-09 M | 8.97e-09 M | 1.72e-09 M | 2.84e-10 M | 9.32e-10 M | 1.39e-08 M | 9.19e-09 M | 1.08e-09 M | 1e-09 M | 1.15e-09 M | 2.1e-09 M | 1.3e-09 M | 
12 | CCCCCC(=O)NC[C@H]1c2c(c(OC(C)=O)c(C)c3c2OCO3)CC2[C@H]3c4c(cc(C)c(OC)c4O)C[C@@H]([C@H](O)N21)N3C (stereo partly shown) [drawing 230] | 1.5e-08 M | 6.89e-08 M | 1.08e-08 M | 1.1e-09 M | 3.87e-09 M | 1.97e-09 M | 3.81e-09 M | 1.08e-09 M |  |  |  |  |  |  |  |  |  |  |  |  | 
13 | CCC(=O)NC[C@H]1c2c(c(OC(C)=O)c(C)c3c2OCO3)CC2[C@H]3c4c(cc(C)c(OC)c4O)C[C@@H]([C@H](O)N21)N3C (stereo partly shown) [drawing 231] | 4.93e-10 M | 1.87e-08 M | 1.2e-08 M |  | 9.86e-10 M |  | 1.04e-09 M |  |  |  |  |  |  |  |  |  |  |  |  |  | 

From patent publication US8012975B2, “Antitumoral analogs of ET-743” (Pharma Mar, S.A., priority 2000, dated 2011)
